{"source": "paper PMC3185947", "about": "(British Journal of Cancer, 2011)", "details": "in vivo; for OSI-420 AUC0–24 / OSI-420 Cmax / OSI-420 Tmax, median (range) / OSI-420 Tmax: human", "note": "Read-outs that look alike come from different tables or passages of the source. Marks after values point to notes of the source that are not given here.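 Also: pharmacokinetic parameters derived by non-compartmental analysis.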"}
{"molecule": "C#Cc1cccc(Nc2ncnc3cc(OCCOC)c(OCCO)cc23)c1", "note": "[OSI-420]", "values": [{"measurement": "OSI-420 AUC0–24", "setting": "150 mg", "result": "2.56 (0.599–10.5) ^a μg h ml^−1"}, {"measurement": "OSI-420 Cmax", "setting": "150 mg", "result": "0.165 (0.0452–0.568) μg ml^−1"}, {"measurement": "OSI-420 Tmax, median (range)", "setting": "150 mg", "result": "4.0 (1.05–23.9) h"}, {"measurement": "OSI-420 AUC0–24", "setting": "200 mg", "result": "4.55 (0.996–19.2) μg h ml^−1"}, {"measurement": "OSI-420 Cmax", "setting": "200 mg", "result": "0.278 (0.0617–0.864) μg ml^−1"}, {"measurement": "OSI-420 Tmax, median (range)", "setting": "200 mg", "result": "2.0 (1.00–24.0) h"}, {"measurement": "OSI-420 AUC0–24", "setting": "225 mg", "result": "4.10 (1.57–19.7) μg h ml^−1"}, {"measurement": "OSI-420 Cmax", "setting": "225 mg", "result": "0.260 (0.116–0.908) μg ml^−1"}, {"measurement": "OSI-420 Tmax, median (range)", "setting": "225 mg", "result": "2.0 (0.930–8.00) h"}, {"measurement": "OSI-420 AUC0–24", "setting": "250 mg", "result": "3.32 (1.52–16.4) μg h ml^−1"}, {"measurement": "OSI-420 Cmax", "setting": "250 mg", "result": "0.219 (0.119–0.760) μg ml^−1"}, {"measurement": "OSI-420 Tmax, median (range)", "setting": "250 mg", "result": "4.0 (1.00–8.00) h"}, {"measurement": "OSI-420 AUC0–24", "setting": "275 mg", "result": "3.62 (1.51–15.7) μg h ml^−1"}, {"measurement": "OSI-420 Cmax", "setting": "275 mg", "result": "0.223 (0.107–0.929) μg ml^−1"}, {"measurement": "OSI-420 Tmax, median (range)", "setting": "275 mg", "result": "2.0 (1.00–8.02) h"}, {"measurement": "OSI-420 AUC0–24", "setting": "300 mg", "result": "4.23 (1.38–6.32) μg h ml^−1"}, {"measurement": "OSI-420 Cmax", "setting": "300 mg", "result": "0.273 (0.133–0.346) μg ml^−1"}, {"measurement": "OSI-420 Tmax, median (range)", "setting": "300 mg", "result": "2.0 (1.00–2.03) h"}, {"measurement": "OSI-420 AUC0–24", "setting": "325 mg", "result": "4.18 (2.26, 6.09) μg h ml^−1"}, {"measurement": "OSI-420 Cmax", "setting": "325 mg", "result": "0.344 (0.222, 0.426) μg ml^−1"}, {"measurement": "OSI-420 Tmax, median (range)", "setting": "325 mg", "result": "1.5 (2.00, 1.00) h"}, {"measurement": "OSI-420 AUC0–24", "setting": "350 mg", "result": "2.33 (2.94, 1.72) μg h ml^−1"}, {"measurement": "OSI-420 Cmax", "setting": "350 mg", "result": "0.169 (0.243, 0.0945) μg ml^−1"}, {"measurement": "OSI-420 Tmax, median (range)", "setting": "350 mg", "result": "2.0 (2.00, 2.03) h"}, {"measurement": "OSI-420 AUC0–24", "setting": "375 mg", "result": 3.80, "unit": "µg·h/mL"}, {"measurement": "OSI-420 Cmax", "setting": "375 mg", "result": 0.253, "unit": "µg/mL"}, {"measurement": "OSI-420 Tmax", "setting": "375 mg", "result": 1.0, "unit": "h"}, {"measurement": "OSI-420 AUC0–24", "setting": "400 mg", "result": 6.84, "unit": "µg·h/mL"}, {"measurement": "OSI-420 Cmax", "setting": "400 mg", "result": 0.454, "unit": "µg/mL"}, {"measurement": "OSI-420 Tmax", "setting": "400 mg", "result": 2.0, "unit": "h"}, {"measurement": "OSI-420 AUC0–24", "setting": "425 mg", "result": 5.02, "unit": "µg·h/mL"}, {"measurement": "OSI-420 Cmax", "setting": "425 mg", "result": 0.293, "unit": "µg/mL"}, {"measurement": "OSI-420 Tmax", "setting": "425 mg", "result": 2.0, "unit": "h"}, {"measurement": "OSI-420 AUC0–24", "setting": "450 mg", "result": 8.78, "unit": "µg·h/mL"}, {"measurement": "OSI-420 Cmax", "setting": "450 mg", "result": 0.489, "unit": "µg/mL"}, {"measurement": "OSI-420 Tmax", "setting": "450 mg", "result": 4.0, "unit": "h"}, {"measurement": "Interpatient and intrapatient variability of PK", "result": "High"}]}
